According to patent US20110177105A1, “Novel Selective Inhibitors of Ubiquitin Specific Protease 7, the Pharmaceutical Compositions Thereof and Their Therapeutic Applications” (priority 2010, published 2011):

Experiments:
USP5 = molecular target: T1, USP5 (Homo sapiens, UniProt P45974); test: USP5 activity assay (Ub-AMC); format: biochemical; details: 300 nM Ub-AMC, 300 pM enzyme
T1 sequence (P45974 1-858): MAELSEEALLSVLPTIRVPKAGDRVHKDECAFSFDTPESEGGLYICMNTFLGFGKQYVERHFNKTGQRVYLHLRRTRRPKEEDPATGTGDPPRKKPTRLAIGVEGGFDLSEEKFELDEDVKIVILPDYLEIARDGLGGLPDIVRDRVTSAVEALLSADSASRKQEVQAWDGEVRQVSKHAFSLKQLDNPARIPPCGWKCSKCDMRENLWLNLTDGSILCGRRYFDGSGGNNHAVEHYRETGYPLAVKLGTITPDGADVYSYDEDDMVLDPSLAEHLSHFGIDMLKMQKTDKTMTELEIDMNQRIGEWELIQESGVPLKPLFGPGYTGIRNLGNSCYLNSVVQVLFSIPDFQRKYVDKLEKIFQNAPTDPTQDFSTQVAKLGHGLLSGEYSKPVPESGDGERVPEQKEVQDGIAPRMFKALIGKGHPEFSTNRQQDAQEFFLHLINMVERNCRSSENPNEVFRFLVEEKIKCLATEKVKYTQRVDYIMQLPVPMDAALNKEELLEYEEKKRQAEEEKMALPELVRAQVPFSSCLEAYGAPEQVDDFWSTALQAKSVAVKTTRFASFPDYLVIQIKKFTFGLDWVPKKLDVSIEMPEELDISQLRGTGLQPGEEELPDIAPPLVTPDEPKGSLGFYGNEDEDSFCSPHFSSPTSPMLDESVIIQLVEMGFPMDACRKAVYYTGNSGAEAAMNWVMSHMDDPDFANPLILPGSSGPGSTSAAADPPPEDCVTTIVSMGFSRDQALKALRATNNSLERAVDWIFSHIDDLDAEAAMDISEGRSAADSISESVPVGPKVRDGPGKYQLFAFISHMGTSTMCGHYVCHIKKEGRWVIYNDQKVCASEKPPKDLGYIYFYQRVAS
Experimental: USP5 was diluted in USP buffer (50 mM Tris HCl; 0.5 mM EDTA; 5 mM DTT; 0.01% Triton X-100; Bovine Serum Albumin 0.05 mg·ml^−1 pH 7.6). Compounds stocks (100 mM) were stored at −20° C. in DMSO. Compounds were tested at different concentrations: from 200 μM to 91 nM.
Reactions were performed as duplicates in Black 384 well plates (small volume microplates; Greiner; 10 μl final reaction volume). The substrate concentration for USP5 was 300 nM Ub-AMC (Boston Biochem). The concentrations of the enzyme (USP5) in specificity assays was 300 pM. The concentrations were determined in order to perform specificity assays under initial velocities at fixed substrate concentration. Compounds were pre-incubated with enzymes for 30 minutes at 25° C. Reactions were initiated by addition of substrate to the plates containing the enzymes (+/−compounds) diluted in assay buffer. Reactions were incubated for 60 minutes at 37° C. Reactions were stopped by adding acetic acid (100 mM final). Readings were performed on a Pherastar Fluorescent Reader (BMG). λ Emission 380 nm; λ Excitation=460 nm. Data (mean values+/−standard deviation) were analyzed as % of control (no compound) and plotted as percentage versus the Log of the compound concentration using GraphPad (Prism). Data were fitted to a sigmoidal model (variable slope).

UCH-L3 = molecular target: T2, UCH-L3 (Homo sapiens, UniProt P15374); test: UCH-L3 activity assay (Ub-AMC); format: biochemical; details: 300 nM Ub-AMC, 13 pM enzyme
T2 sequence (P15374 1-230): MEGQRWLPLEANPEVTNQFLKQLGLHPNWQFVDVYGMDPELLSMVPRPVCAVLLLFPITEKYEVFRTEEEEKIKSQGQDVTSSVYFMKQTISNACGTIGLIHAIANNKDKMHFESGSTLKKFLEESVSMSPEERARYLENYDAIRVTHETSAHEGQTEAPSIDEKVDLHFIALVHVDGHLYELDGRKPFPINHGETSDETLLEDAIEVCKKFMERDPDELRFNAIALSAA
Experimental: UCH-L3 was diluted in USP buffer (50 mM Tris HCl; 0.5 mM EDTA; 5 mM DTT; 0.01% Triton X-100; Bovine Serum Albumin 0.05 mg·ml^−1 pH 7.6). Compounds stocks (100 mM) were stored at −20° C. in DMSO. Compounds were tested at different concentrations: from 200 μM to 91 nM.
Reactions were performed as duplicates in Black 384 well plates (small volume microplates; Greiner; 10 μl final reaction volume). The substrate concentration for UCH-L3 was 300 nM Ub-AMC (Boston Biochem). The concentration of the enzyme (UCH-L3) in specificity assays was 13 pM. The concentrations were determined in order to perform specificity assays under initial velocities at fixed substrate concentration. Compounds were pre-incubated with enzymes for 30 minutes at 25° C. Reactions were initiated by addition of substrate to the plates containing the enzymes (+/−compounds) diluted in assay buffer. Reactions were incubated for 60 minutes at 37° C. Reactions were stopped by adding acetic acid (100 mM final). Readings were performed on a Pherastar Fluorescent Reader (BMG). λ Emission 380 nm; λ Excitation=460 nm. Data (mean values+/−standard deviation) were analyzed as % of control (no compound) and plotted as percentage versus the Log of the compound concentration using GraphPad (Prism). Data were fitted to a sigmoidal model (variable slope).

IC50 (USP5)	IC50 (UCH-L3)	Structure (SMILES)
> 200 µM	> 200 µM	CCN(CCCNC(=O)c1ccc2c(Cl)c3c(nc2c1)CCCC3)Cc1ccccc1 [Example 5, 9-Chloro-5,6,7,8-tetrahydro-acridine-3-carboxylic acid [3-(benzyl-ethyl-amino)-propyl]-amide]
> 200 µM	> 200 µM	CCCN(CCC)CCCNC(=O)c1ccc2c(Cl)c3c(nc2c1)CCCC3 [Example 6, 9-Chloro-5,6,7,8-tetrahydro-acridine-3-carboxylic acid (3-dipropylamino-propyl)-amide]
> 200 µM	> 200 µM	O=C(NCCCN1CCCC1)c1ccc2c(Cl)c3c(nc2c1)CCCC3 [Example 8, 9-Chloro-5,6,7,8-tetrahydro-acridine-3-carboxylic acid (3-pyrrolidin-1-yl-propyl)-amide]
> 200 µM	> 200 µM	CCN(CC)CCCNC(=O)c1ccc2c(Cl)c3c(nc2c1)CCCC3 [Example 10, 9-Chloro-5,6,7,8-tetrahydro-acridine-3-carboxylic acid (3-diethylamino-propyl)-amide]
> 200 µM	> 200 µM	CCCCN(CC)CCNC(=O)c1ccc2c(Cl)c3c(nc2c1)CCCC3 [Example 4, 9-Chloro-5,6,7,8-tetrahydro-acridine-3-carboxylic acid [2-(butyl-ethyl-amino)-ethyl]-amide]
> 200 µM	> 200 µM	CN(C)CCNC(=O)c1ccc2c(Cl)c3c(nc2c1)CCCC3 [Example 11, 9-Chloro-5,6,7,8-tetrahydro-acridine-3-carboxylic acid (2-dimethylamino-ethyl)-amide]
> 200 µM	> 200 µM	CN(CCCNC(=O)c1ccc2c(Cl)c3c(nc2c1)CCCC3)Cc1ccccc1 [Example 14, 9-Chloro-5,6,7,8-tetrahydro-acridine-3-carboxylic acid [3-(benzyl-methyl-amino)-propyl]-amide]
> 200 µM	> 200 µM	CCN1CCCC1CNC(=O)c1ccc2c(Cl)c3c(nc2c1)CCCC3 (centres unmarked) [Example 2, 9-Chloro-5,6,7,8-tetrahydro-acridine-3-carboxylic acid (1-ethyl-pyrrolidin-2-ylmethyl)-amide]
> 200 µM	> 200 µM	CCCN(CCC)CCNC(=O)c1ccc2c(Cl)c3c(nc2c1)CCCC3 [Example 3, 9-Chloro-5,6,7,8-tetrahydro-acridine-3-carboxylic acid (2-dipropylamino-ethyl)-amide]
> 200 µM	> 200 µM	O=C(c1ccc2c(Cl)c3c(nc2c1)CCCC3)N1CCC(N2CCCCC2)CC1 [Example 16, [1,4′]Bipiperidinyl-1′-yl-(9-chloro-5,6,7,8-tetrahydro-acridin-3-yl)-methanone]
> 200 µM	> 200 µM	CC1CCCC(C)N1CCCNC(=O)c1ccc2c(Cl)c3c(nc2c1)CCCC3 (centres unmarked) [Example 9, 9-Chloro-5,6,7,8-tetrahydro-acridine-3-carboxylic acid [3-(2,6-dimethyl-piperidin-1-yl)-propyl]-amide]
> 200 µM	> 200 µM	O=C(c1ccc2c(Cl)c3c(nc2c1)CCCC3)N1CCCCCC1 [Example 12, Azepan-1-yl-(9-chloro-5,6,7,8-tetrahydro-acridin-3-yl)-methanone]
> 200 µM	> 200 µM	CN1CCN(CCCNC(=O)c2ccc3c(Cl)c4c(nc3c2)CCCC4)CC1 [Example 15, 9-Chloro-5,6,7,8-tetrahydro-acridine-3-carboxylic acid [3-(4-methyl-piperazin-1-yl)-propyl]-amide]
> 200 µM	> 200 µM	Cc1cccc(CN2CCC(CNC(=O)c3ccc4c(Cl)c5c(nc4c3)CCCC5)CC2)c1 [Example 1, 9-Chloro-5,6,7,8-tetrahydro-acridine-3-carboxylic acid [1-(3-methyl-benzyl)-piperidin-4-ylmethyl]-amide]
> 200 µM	> 200 µM	CCCN1CCN(CCCNC(=O)c2ccc3c(Cl)c4c(nc3c2)CCCC4)CC1 [Example 13, 9-Chloro-5,6,7,8-tetrahydro-acridine-3-carboxylic acid [3-(4-propyl-piperazin-1-yl)-propyl]-amide]

Structure (SMILES)	IC50 (USP5)	IC50 (UCH-L3)
CCN(CC)CCNC(=O)c1ccc2c(Cl)c3c(nc2c1)CCCC3 [Example 7, 9-Chloro-5,6,7,8-tetrahydro-acridine-3-carboxylic acid (2-diethylamino-ethyl)-amide]	> 200 µM	> 200 µM
